Measurements published in patent US7491705B2, “Alpha-ketoamide derivative, and production method and use thereof” (Senju Pharmaceutical Co., Ltd., priority 2003, dated 2009).
≈ marks a conversion by molar mass, not a printed value.

Experiments:
[1] = system: T1, μ-calpain; assay type: biochemical; details: μ-calpain derived from human red blood cells; 30° C., 60 minutes; read-out: Enzyme inhibitory activity μ-calpain (IC50)
T1 construct: μ-calpain (derived from human red blood cells; available from Cosmo Bio Co. Ltd.); purchased Cosmo Bio Co. Ltd; host or cells: purified from human red blood cells
Procedure: (1) Measurement of Inhibitory Activity Against μ-Calpain and m-Calpain
The inhibitory activity against μ-calpain and m-calpain was assayed according to the method described in Anal. Biochem. 1993, vol. 208, p. 387-392. That is, to 2.5 μL of a DMSO solution containing a varying concentration of the test sample in a 96-well plate was added 200 μL of a reaction solution containing 0.5 mg/mL casein, 50 mM Tris-HCl buffer (pH 7.4), 20 mM dithiothreitol and 1.0 nmol μ-calpain (derived from human red blood cells; available from Cosmo Bio Co. Ltd.) or m-calpain (derived from porcine kidney; available from Cosmo Bio Co. Ltd.). After 20 mM aqueous calcium chloride (50 μL) was added thereto, the mixture was incubated at 30° C. for 60 minutes. Then, 100 μL of the reaction solution was transferred to another 96-well plate, and purified water (50 μL) and 50% aqueous solution (100 μL) of Protein Assay Dye Reagent (available from Bio-Rad Laboratories, Inc.; catalogue No. 500-600) were added thereto. The reaction mixture was allowed to stand at room temperature for 15 minutes, and its absorbance was measured at 595 nm.
The absorbance of a reaction mixture prepared in the same manner as mentioned above, except that a DMSO solution contained no sample, was used as a control value, and that of a reaction mixture prepared in the same manner as mentioned above, except that 1 mM aqueous EDTA solution (50 μL) was used in place of 20 mM aqueous calcium chloride, was used as a blank value. […] Inhibition rate (%)={1−(measured value minus blank value)/(control value minus blank value)}×100

[2] = Partition coefficient using IAM column; assay type: physicochemical; details: IAM Fast Screening Mini-Column; Dulbecco's phosphate buffer (pH 7.4)
Procedure: Analysis by HPLC system was carried out under the conditions given below, and retention time of each substance was measured. • Column: IAM Fast Screening Mini-Column (Regis Technologies, Inc.) • Mobile phase: Dulbecco's phosphate buffer (pH 7.4) • Detection wavelength: 250 nm • Column temperature: room temperature • Injection amount: 5.0 to 20 μL • Flow rate: 0.5 mL/min • Sample solution: 5 mg of sample was dissolved in 100 μL of acetonitrile, and a mobile phase was added to make 1 mL of a sample solution.
The measured value was inserted into the following formula, and the partition coefficient (K′ IAM) was calculated. k′IAM=(tR−t0)/t0 t0: retention time of the peak derived from acetonitrile tR: retention time of the peak of the sample

[3] = Solubility in 10 mM phosphate buffer (pH 7.0); assay type: physicochemical
Procedure: Solubility of the compounds of the present invention in 10 mM phosphate buffer (pH 7.0) was measured.

[4] = Transportation rate into blood after oral administration; assay type: in vivo, Macaca fascicularis (crab-eating monkey); details: cynomolgus monkey, 10 mg/kg, Macaca fascicularis, plasma; for AUC(0-t): read-out: AUC 0→4 hr
Procedure: The compound of the present invention was administered orally to Macaca fascicularis (crab-eating monkey) at a dose of 10 mg/kg. The blood was collected with the lapse of time, and the concentration of each compound in the plasma was measured.

[5] = in vitro; details: human, Caco-2
Procedure: As a culture medium for the incubation, Dulbecco's modified Eagle's minimum essential medium (GIBCO BRL) supplemented with 10% fetal calf serum (GIBCO BRL), antibiotic-antimycotic mixture, liquid (GIBCO BRL), non-essential amino acid solution (GIBCO BRL) and 2 mmol/L L-glutamine (GIBCO BRL) was used. […] Propranolol was used as a positive control, and ^14C-mannitol was used as a negative control. LC-MS/MS was used for quantitative analysis of samples, and a liquid scintillation counter was used for quantitative analysis of ^14C-mannitol.
Papp: apparent permeation coefficient (cm/sec)
δQ/δt: permeation velocity (pmol/min)
A: area of monolayer cell=0.33 cm^2
C0: initial concentration at apical membrane side (pmol/mL)

Compound	IC50 [1] [µM]	also measured
COCCOCCOC(=O)N[C@@H](CC(C)C)C(=O)NC(Cc1ccccc1)C(=O)C(N)=O (mixture of isomers) [Compound 23, ((1S)-1-((((1RS)-3-amino-1-benzyl-2,3-dioxopropyl)amino)carbonyl)-3-methylbutyl)carbamic acid 5-methoxy-3-oxapentyl ester]	0.19	–
CCNC(=O)C(=O)[C@H](Cc1ccccc1)NC(=O)[C@H](CC(C)C)NC(=O)OCCOC [Compound 1, ((1S)-1-((((1S)-1-Benzyl-2,3-dioxo-3-(ethylamino)propyl)amino)carbonyl)-3-methylbutyl)carbamic acid 2-methoxyethyl ester]	0.17	–
CCNC(=O)C(=O)[C@H](Cc1ccccc1)NC(=O)[C@H](CC(C)C)NC(=O)O[C@H]1CCOC1 [Compound 2, ((1S)-1-((((1S)-1-Benzyl-2,3-dioxo-3-(ethylamino)propyl)amino)carbonyl)-3-methylbutyl)carbamic acid (3S)-tetrahydrofuran-3-yl ester]	0.15	–
CCNC(=O)C(=O)[C@H](Cc1ccccc1)NC(=O)[C@H](CC(C)C)NC(=O)OC1CCOCC1 [Compound 3, ((1S)-1-((((1S)-1-Benzyl-2,3-dioxo-3-(ethylamino)propyl)amino)carbonyl)-3-methylbutyl)carbamic acid tetrahydro-4H-pyran-4-yl ester]	0.25	–
CC(C)C[C@H](NC(=O)O[C@H]1CCOC1)C(=O)N[C@@H](Cc1ccccc1)C(=O)C(=O)NC1CC1 [Compound 5, ((1S)-1-((((1S)-1-Benzyl-3-(cyclopropylamino)-2,3-dioxo-propyl)amino)carbonyl)-3-methylbutyl)carbamic acid (3S)-tetrahydrofuran-3-yl ester]	0.09	–
CC(C)C[C@H](NC(=O)OC1CCOCC1)C(=O)N[C@@H](Cc1ccccc1)C(=O)C(=O)NC1CC1 [Compound 6, ((1S)-1-((((1S)-1-Benzyl-3-cyclopropylamino-2,3-dioxo-propyl)amino)carbonyl)-3-methylbutyl)carbamic acid tetrahydro-4H-pyran-4-yl ester]	0.12	–
CCCNC(=O)C(=O)[C@H](Cc1ccccc1)NC(=O)[C@H](CC(C)C)NC(=O)OCCOC [Compound 7]	0.1	–
COCCOC(=O)N[C@@H](CC(C)C)C(=O)N[C@@H](Cc1ccccc1)C(=O)C(=O)NC1CCC1 [Compound 8, ((1S)-1-((((1S)-1-Benzyl-2,3-dioxo-3-(cyclobutylamino)propyl)amino)carbonyl)-3-methylbutyl)carbamic acid 2-methoxyethyl ester]	0.17	–
CCCCNC(=O)C(=O)[C@H](Cc1ccccc1)NC(=O)[C@H](CC(C)C)NC(=O)OCCOC [Compound 9, ((1S)-1-((((1S)-1-Benzyl-3-butylamino-2,3-dioxo-propyl)amino)carbonyl)-3-methylbutyl)carbamic acid 2-methoxyethyl ester]	0.1	–
COCCOC(=O)N[C@@H](CC(C)C)C(=O)N[C@@H](Cc1ccccc1)C(=O)C(=O)NCC(F)(F)F [Compound 10, ((1S)-1-((((1S)-1-Benzyl-2,3-dioxo-3-(2,2,2-trifluoroethylamino)propyl)amino)carbonyl)-3-methylbutyl)carbamic acid 2-methoxyethyl ester]	0.45	–
COCCOC(=O)N[C@@H](CC(C)C)C(=O)N[C@@H](Cc1ccccc1)C(=O)C(=O)NC1Cc2ccccc2C1 [Compound 11, ((1S)-1-((((1S)-1-Benzyl-2,3-dioxo-3-(2-indanylamino)propyl)amino)carbonyl)-3-methylbutyl)carbamic acid 2-methoxyethyl ester]	0.17	–
COCCNC(=O)C(=O)[C@H](Cc1ccccc1)NC(=O)[C@H](CC(C)C)NC(=O)OCCOC [Compound 12, ((1S)-1-((((1S)-1-Benzyl-2,3-dioxo-3-(2-methoxyethylamino)propyl)amino)carbonyl)-3-methylbutyl)carbamic acid 2-methoxyethyl ester]	0.18	–
CCNC(=O)C(=O)[C@H](CCc1ccccc1)NC(=O)[C@H](CC(C)C)NC(=O)OCCOC [Compound 13, ((1S)-1-((((1S)-2,3-Dioxo-3-ethylamino-1-(phenylethyl)propyl)amino)carbonyl)-3-methylbutyl)carbamic acid 2-methoxyethyl ester]	0.3	–
CCNC(=O)C(=O)[C@H](CCc1ccccc1)NC(=O)[C@H](CC(C)C)NC(=O)O[C@H]1CCOC1 [Compound 14, ((1S)-1-((((1S)-2,3-Dioxo-3-ethylamino-1-(phenylethyl)propyl)amino)carbonyl)-3-methylbutyl)carbamic acid (3S)-tetrahydrofuran-3-yl ester]	0.16	–
COCCOC(=O)N[C@@H](CC(C)C)C(=O)N[C@@H](CCc1ccccc1)C(=O)C(=O)NC1CC1 [Compound 15, ((1S)-1-((((1S)-2,3-Dioxo-3-cyclopropylamino-1-(phenylethyl)propyl)amino)carbonyl)-3-methylbutyl)carbamic acid 2-methoxyethyl ester]	0.18	–
CC(C)C[C@H](NC(=O)O[C@H]1CCOC1)C(=O)N[C@@H](CCc1ccccc1)C(=O)C(=O)NC1CC1 [Compound 16, ((1S)-1-((((1S)-2,3-Dioxo-3-cyclopropylamino-1-(phenylethyl)propyl)amino)carbonyl)-3-methylbutyl)carbamic acid (3S)-tetrahydro-furan-3-yl ester]	0.14	–
COCCOCCOCCOC(=O)N[C@@H](CC(C)C)C(=O)N[C@@H](Cc1ccccc1)C(=O)C(=O)NC1CC1 [Compound 18, ((1S)-1-((((1S)-1-Benzyl-2,3-dioxo-3-(cyclopropylamino)propyl)amino)carbonyl)-3-methylbutyl)carbamic acid 8-methoxy-3,6-dioxaoctyl ester]	–	IAM (Log k′IAM) [2]: 1.38; Solubility [3]: 5.4 mg/mL (≈ 10.1 mM); Cmax [4]: 0.66 µM; AUC(0-t) [4]: 1600 nM·h
COCCOCCOCCOCCOC(=O)N[C@@H](CC(C)C)C(=O)N[C@@H](Cc1ccccc1)C(=O)C(=O)NC1CC1 [Compound 19, ((1S)-1-((((1S)-1-Benzyl-2,3-dioxo-3-(cyclopropylamino)propyl)amino)carbonyl)-3-methylbutyl)carbamic acid 11-methoxy-3,6,9-trioxaundecanyl ester]	–	IAM (Log k′IAM) [2]: 1.44; Solubility [3]: 8.3 mg/mL (≈ 14.3 mM); Cmax [4]: 0.9 µM; AUC(0-t) [4]: 1600 nM·h
COCCOCCOCCOCCOCCOC(=O)N[C@@H](CC(C)C)C(=O)N[C@@H](Cc1ccccc1)C(=O)C(=O)NC1CC1 [Compound 20, ((1S)-1-((((1S)-1-Benzyl-2,3-dioxo-3-(cyclopropylamino)propyl)amino)carbonyl)-3-methylbutyl)carbamic acid 14-methoxy-3,6,9,12-tetraoxa-tetradecanyl ester]	–	Solubility [3]: 16.3 mg/mL (≈ 26.1 mM)
COCCOC(=O)N[C@@H](CC(C)C)C(=O)N[C@@H](CC(C)C)C(=O)C(=O)NCCOc1ccccc1 [Compound 21, ((1S)-1-((((1S)-2,3-Dioxo-1-(2-methylpropyl)-3-(2-phenoxyethyl)aminopropyl)amino)carbonyl)-3-methylbutyl)carbamic acid 2-methoxyethyl ester]	0.08	–
COCCOCCOC(=O)N[C@@H](CC(C)C)C(=O)N[C@@H](CC(C)C)C(=O)C(=O)NCCOc1ccccc1 [Compound 22, ((1S)-1-((((1S)-2,3-Dioxo-1-(2-methylpropyl)-3-(2-phenoxyethyl)aminopropyl)amino)carbonyl)-3-methylbutyl)carbamic acid 5-methoxy-3-oxapentyl ester]	0.09	–
CC(C)C[C@H](NC(=O)OCCc1ccccn1)C(=O)N[C@@H](Cc1ccccc1)C(=O)C(=O)NC1CC1 [Compound 24, ((1S)-1-((((1S)-1-benzyl-3-(cyclopropylamino)-2,3-dioxo-propyl)amino)carbonyl)-3-methylbutyl)carbamic acid 2-(pyridin-2-yl)ethyl ester]	0.029	–
CC(C)NCC(O)COc1cccc2ccccc12 (stereo not drawn) [Propranolol, reference compound]	–	Papp A→B at 10 μm [5]: 85 nm/s; IAM (Log k′IAM) [2]: 1.95
